Measured values as given in publication PMC5095062, “The novel choline kinase inhibitor ICL-CCIC-0019 reprograms cellular metabolism and inhibits cancer cell growth” (Oncotarget, 2016).
Where two headings read alike, the source gives them in different places.

Tests used:
[1] = Tissue pharmacokinetics in HCT116 xenograft bearing mice; assay type: in vivo, BALB/c nude mice; conditions: 10 mg/kg i.p.
Method: (§1) Plasma pharmacokinetic parameters of ICL-CCIC-0019 were established in female BALB/c mice aged 6–8 weeks (Harlan). Mice were intraperitoneally (i.p.) or perorally (p.o.) administered a single dose of 10 mg/kg and blood collected by cardiac puncture after 5, 15, 30 minutes and 1, 2, 4, 6 and 24 h. For tissue pharmacokinetic studies, HCT116 xenograft bearing mice were administered 10 mg/kg ICL-CCIC-0019 i.p. and blood collected after 5 minutes, 2, 6 and 24 h. Plasma was obtained by centrifugation at 1000 × g for 10 minutes. Samples were snap-frozen and stored at −80°C prior to analysis. Analysis was carried out by Cyprotex Inc. using liquid chromatography–mass spectrometry (LC–MS). For analysis of plasma metabolites, 2-hour samples of tissue pharmacokinetic studies were pooled.

[2] = target: recombinant human Δ49N CHKA2 (Homo sapiens, UniProt P35790); assay: Enzymatic inhibition of choline kinase activity; assay type: biochemical
Sequence of recombinant human Δ49N CHKA2 (P35790 50-457 limits assumed, stated change not applied): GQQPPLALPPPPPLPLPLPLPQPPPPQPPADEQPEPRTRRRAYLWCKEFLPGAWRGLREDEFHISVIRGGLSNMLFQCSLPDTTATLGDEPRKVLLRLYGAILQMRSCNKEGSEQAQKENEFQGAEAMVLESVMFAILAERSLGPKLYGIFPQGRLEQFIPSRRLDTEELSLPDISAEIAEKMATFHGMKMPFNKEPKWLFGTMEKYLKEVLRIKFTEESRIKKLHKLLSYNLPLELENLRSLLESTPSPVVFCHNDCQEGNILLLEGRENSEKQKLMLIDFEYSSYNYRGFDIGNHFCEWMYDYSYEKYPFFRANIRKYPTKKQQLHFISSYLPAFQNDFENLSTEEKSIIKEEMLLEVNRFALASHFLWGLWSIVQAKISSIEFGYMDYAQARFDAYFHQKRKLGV
Method: Enzymatic kinase activity, [^3H]choline to [^3H]PCho conversion and growth inhibition assays was conducted as previously described. [^3H]choline incorporation into soluble and lipid fractions was determined by a pulse-chase experiment. HCT116 cells were seeded at a density of 3 × 10^5 cell per well into 12-well plates and incubated overnight. Cells were treated with 1 or 10 μM ICL-CCIC-0019 for 1 h and pulsed in presence of inhibitor with 18.5 kBq/mL [^3H]choline chloride in 500 μL for 1 additional h. Cells were briefly rinsed with RPMI and incubated with fresh, non-radioactive medium for 6 h. Metabolites were extracted as described elsewhere, but additionally the radioactivity of the choline-containing and chloroform (lipid-containing) fractions was measured. Uptake of radiolabeled metabolite-tracers was measured as described elsewhere. Antiproliferative activity was measured after 72 h continuous exposure to inhibitors by sulforhodamine B (SRB) assay as described elsewhere. Apoptosis was determined using Caspase 3/7 Glo assay (Promega) according to the manufacturer's instructions.

[3] = Plasma metabolite analysis by LC-MS; assay type: in vivo, BALB/c mice; conditions: pooled 2-hour plasma samples
Method: as §1

[4] = test system: panel of 131 human kinases; assay: Kinase selectivity screen (whole panel); assay type: biochemical; conditions: 10 μM
Method: (§2) The substantially less demanding synthesis of ICL-CCIC-0019 compared with MN58B bears additional advantages. […] This consequently diminished intracellular PCho concentration, and importantly, the incorporation of [^3H]-choline into lipids (Figure 1D). […] To assess kinase specificity, ICL-CCIC-0019 was tested against a panel of 131 human kinases (Figure 1E and Supplementary Table S1). […] Inhibition greater than 20% was attained for insulin-like growth factor 1 (IGF-1R, 35 ± 7% inhibition), mitogen-activated protein kinase-activated protein kinase 3 (MAPKAP-K3, 33 ± 6%), extracellular signal regulated kinase 8 (ERK8, 31 ± 4%), ribosomal S6 kinase 1 (RSK1, 22 ± 6%), and v-erb-a erythroblastic leukemia viral oncogene homolog 4 (HER4, 21 ± 7%).

MELK = MELK (Homo sapiens, UniProt Q14680); assay: Kinase selectivity screen; assay type: biochemical
Method: as §2

MAPKAP-K3 = MAPKAP-K3 (Homo sapiens, UniProt Q16644); assay: Kinase selectivity screen; assay type: biochemical; conditions: MAPKAP-K3, 10 μM
Sequence of MAPKAP-K3 (Q16644 whole entry): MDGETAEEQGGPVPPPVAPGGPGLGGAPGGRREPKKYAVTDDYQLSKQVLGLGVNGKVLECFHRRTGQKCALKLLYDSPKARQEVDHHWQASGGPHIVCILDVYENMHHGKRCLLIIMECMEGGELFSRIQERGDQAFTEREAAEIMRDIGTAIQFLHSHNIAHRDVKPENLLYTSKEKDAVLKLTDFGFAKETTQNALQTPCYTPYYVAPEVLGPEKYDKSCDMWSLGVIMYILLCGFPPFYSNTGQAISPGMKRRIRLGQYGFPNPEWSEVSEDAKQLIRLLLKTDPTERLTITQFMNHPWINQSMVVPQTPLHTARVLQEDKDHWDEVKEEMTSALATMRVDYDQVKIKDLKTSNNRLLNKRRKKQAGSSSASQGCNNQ
Method: as §2

MEKK1 = MEKK1 (Homo sapiens, UniProt Q13233); assay: Kinase selectivity screen; assay type: biochemical; conditions: MEKK1, 10 μM
Method: as §2

EIF2AK3 = EIF2AK3 (Homo sapiens, UniProt Q9NZJ5); assay: Kinase selectivity screen; assay type: biochemical; conditions: EIF2AK3, 10 μM
Sequence of EIF2AK3 (Q9NZJ5 30-1116): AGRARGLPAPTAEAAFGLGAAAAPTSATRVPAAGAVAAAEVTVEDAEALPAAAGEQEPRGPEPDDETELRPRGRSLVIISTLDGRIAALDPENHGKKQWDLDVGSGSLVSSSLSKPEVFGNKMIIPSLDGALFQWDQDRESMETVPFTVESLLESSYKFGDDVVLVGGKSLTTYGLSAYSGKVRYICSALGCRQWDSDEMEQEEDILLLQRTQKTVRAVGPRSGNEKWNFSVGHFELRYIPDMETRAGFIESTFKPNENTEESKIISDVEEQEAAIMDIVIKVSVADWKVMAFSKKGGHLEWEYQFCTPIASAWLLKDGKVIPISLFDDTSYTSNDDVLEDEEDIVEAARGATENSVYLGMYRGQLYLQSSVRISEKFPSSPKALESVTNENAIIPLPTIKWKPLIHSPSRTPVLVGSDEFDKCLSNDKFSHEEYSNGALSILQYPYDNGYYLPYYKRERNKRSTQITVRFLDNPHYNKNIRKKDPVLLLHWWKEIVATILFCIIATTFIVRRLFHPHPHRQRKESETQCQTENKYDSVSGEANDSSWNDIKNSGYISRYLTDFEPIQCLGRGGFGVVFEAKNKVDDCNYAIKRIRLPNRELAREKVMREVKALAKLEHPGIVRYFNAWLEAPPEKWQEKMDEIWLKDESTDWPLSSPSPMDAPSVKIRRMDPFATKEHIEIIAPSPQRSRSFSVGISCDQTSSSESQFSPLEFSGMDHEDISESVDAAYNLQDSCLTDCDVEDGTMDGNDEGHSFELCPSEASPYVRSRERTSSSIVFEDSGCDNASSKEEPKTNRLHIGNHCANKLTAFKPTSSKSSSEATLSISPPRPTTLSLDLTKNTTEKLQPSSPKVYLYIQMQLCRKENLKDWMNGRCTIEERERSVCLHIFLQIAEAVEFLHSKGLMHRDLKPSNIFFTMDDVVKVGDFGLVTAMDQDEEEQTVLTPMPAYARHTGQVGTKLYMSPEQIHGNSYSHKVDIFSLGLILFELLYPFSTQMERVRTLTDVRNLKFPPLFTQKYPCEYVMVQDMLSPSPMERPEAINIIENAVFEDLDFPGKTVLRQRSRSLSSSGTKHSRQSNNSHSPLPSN
Method: as §2

CK2 = CK2 (Homo sapiens, UniProt P68400); assay: Kinase selectivity screen; assay type: biochemical; conditions: CK2, 10 μM
Method: as §2

STK33 = STK33 (Homo sapiens, UniProt Q9BYT3); assay: Kinase selectivity screen; assay type: biochemical; conditions: STK33, 10 μM
Method: as §2

CDK9-Cyclin T1 = CDK9-Cyclin T1 (Homo sapiens, UniProt P50750); assay: Kinase selectivity screen; assay type: biochemical; conditions: CDK9-Cyclin T1, 10 μM
Method: as §2

PIM1 = PIM1 (Homo sapiens, UniProt P11309); assay: Kinase selectivity screen; assay type: biochemical; conditions: PIM1, 10 μM
Sequence of PIM1 (P11309 whole entry): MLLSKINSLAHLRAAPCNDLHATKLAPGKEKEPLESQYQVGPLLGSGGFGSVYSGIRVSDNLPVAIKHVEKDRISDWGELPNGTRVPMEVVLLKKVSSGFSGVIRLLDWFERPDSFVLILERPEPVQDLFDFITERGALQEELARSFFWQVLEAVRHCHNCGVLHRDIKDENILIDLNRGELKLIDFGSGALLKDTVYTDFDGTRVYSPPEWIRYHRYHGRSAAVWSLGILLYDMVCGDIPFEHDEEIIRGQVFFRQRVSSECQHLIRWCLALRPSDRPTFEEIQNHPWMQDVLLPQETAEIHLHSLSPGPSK
Method: as §2

CK1γ2 = CK1γ2 (Homo sapiens, UniProt P78368); assay: Kinase selectivity screen; assay type: biochemical; conditions: CK1γ2, 10 μM
Method: as §2

PKBb = PKBb (Homo sapiens, UniProt P31751); assay: Kinase selectivity screen; assay type: biochemical
Method: as §2

IRAK4 = IRAK4 (Homo sapiens, UniProt Q9NWZ3); assay: Kinase selectivity screen; assay type: biochemical; conditions: IRAK4, 10 μM
Sequence of IRAK4 (Q9NWZ3 whole entry): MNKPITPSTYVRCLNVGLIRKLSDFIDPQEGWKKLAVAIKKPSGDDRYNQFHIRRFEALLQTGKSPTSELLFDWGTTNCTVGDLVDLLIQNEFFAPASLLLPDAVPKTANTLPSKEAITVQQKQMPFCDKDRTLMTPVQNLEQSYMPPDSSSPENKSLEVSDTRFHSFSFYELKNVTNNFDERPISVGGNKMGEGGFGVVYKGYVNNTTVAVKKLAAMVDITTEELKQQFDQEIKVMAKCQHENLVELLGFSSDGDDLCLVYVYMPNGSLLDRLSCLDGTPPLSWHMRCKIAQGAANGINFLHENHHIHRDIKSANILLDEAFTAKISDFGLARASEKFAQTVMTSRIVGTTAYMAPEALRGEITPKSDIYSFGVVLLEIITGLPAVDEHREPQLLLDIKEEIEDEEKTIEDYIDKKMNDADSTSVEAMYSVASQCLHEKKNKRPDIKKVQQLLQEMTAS
Method: as §2

PDK1 = PDK1 (Homo sapiens, UniProt O15530); assay: Kinase selectivity screen; assay type: biochemical; conditions: PDK1, 10 μM
Method: as §2

RIPK2 = RIPK2 (Homo sapiens, UniProt O43353); assay: Kinase selectivity screen; assay type: biochemical; conditions: RIPK2, 10 μM
Method: as §2

Aurora A = Aurora A (Homo sapiens, UniProt O14965); assay: Kinase selectivity screen; assay type: biochemical
Method: as §2

PAK6 = PAK6 (Homo sapiens, UniProt Q9NQU5); assay: Kinase selectivity screen; assay type: biochemical; conditions: PAK6, 10 μM
Method: as §2

MINK1 = MINK1 (Homo sapiens, UniProt Q8N4C8); assay: Kinase selectivity screen; assay type: biochemical; conditions: MINK1, 10 μM
Sequence of MINK1 (Q8N4C8 whole entry): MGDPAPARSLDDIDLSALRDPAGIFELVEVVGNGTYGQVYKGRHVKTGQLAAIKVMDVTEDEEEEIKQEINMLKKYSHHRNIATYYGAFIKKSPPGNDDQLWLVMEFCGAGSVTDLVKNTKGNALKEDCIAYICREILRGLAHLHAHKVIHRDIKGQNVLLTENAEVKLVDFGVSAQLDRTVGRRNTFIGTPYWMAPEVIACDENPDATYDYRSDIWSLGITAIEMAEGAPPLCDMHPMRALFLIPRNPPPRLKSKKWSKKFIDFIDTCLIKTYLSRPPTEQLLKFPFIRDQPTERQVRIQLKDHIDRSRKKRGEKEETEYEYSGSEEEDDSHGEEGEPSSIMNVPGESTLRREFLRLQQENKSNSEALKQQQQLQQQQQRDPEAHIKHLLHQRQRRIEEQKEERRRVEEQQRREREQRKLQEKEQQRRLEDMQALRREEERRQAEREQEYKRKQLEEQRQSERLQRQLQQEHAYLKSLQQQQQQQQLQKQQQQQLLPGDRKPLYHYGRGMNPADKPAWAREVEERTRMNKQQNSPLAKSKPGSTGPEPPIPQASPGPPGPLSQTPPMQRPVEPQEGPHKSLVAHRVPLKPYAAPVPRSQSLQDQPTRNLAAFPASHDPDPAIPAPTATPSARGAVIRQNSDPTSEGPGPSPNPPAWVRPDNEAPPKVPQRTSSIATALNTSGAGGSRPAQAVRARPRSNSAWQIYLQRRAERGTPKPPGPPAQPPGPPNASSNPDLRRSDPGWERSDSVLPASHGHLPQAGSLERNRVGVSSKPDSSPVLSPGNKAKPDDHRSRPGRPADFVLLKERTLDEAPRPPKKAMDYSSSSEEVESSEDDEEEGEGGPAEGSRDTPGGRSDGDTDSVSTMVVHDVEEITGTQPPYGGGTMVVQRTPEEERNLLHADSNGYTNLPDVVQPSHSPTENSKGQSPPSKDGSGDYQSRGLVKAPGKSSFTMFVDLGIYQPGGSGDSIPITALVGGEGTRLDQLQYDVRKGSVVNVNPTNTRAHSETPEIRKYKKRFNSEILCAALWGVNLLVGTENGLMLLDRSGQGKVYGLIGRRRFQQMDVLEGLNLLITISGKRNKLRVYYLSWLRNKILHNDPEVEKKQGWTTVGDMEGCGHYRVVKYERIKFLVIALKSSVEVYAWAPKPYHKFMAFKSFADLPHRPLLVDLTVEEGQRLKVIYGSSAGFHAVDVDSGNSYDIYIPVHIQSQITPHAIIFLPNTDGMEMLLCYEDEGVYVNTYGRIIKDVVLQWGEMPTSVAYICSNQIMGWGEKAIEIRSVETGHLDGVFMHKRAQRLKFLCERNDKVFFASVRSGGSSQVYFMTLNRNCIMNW
Method: as §2

PAK5 = PAK5 (Homo sapiens, UniProt Q9P286); assay: Kinase selectivity screen; assay type: biochemical; conditions: PAK5, 10 μM
Sequence of PAK5 (Q9P286 whole entry): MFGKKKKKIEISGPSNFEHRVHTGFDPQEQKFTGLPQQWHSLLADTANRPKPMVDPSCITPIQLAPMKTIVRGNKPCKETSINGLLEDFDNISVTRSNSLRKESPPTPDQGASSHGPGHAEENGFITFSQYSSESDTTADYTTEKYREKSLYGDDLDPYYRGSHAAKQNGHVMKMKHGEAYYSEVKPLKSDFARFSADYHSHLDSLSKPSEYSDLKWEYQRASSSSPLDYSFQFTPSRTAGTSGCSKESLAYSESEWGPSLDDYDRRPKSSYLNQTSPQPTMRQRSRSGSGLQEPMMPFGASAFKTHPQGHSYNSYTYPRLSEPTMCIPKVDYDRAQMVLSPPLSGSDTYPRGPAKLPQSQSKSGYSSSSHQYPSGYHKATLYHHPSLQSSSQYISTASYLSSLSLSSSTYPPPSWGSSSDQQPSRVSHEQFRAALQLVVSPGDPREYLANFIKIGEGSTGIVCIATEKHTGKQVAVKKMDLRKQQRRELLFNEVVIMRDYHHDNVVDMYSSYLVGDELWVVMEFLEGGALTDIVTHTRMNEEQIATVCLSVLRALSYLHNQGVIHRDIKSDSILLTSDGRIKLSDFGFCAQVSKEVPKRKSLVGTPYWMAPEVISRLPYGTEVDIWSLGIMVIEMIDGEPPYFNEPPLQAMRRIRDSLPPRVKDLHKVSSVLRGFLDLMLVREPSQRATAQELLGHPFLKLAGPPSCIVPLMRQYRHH
Method: as §2

[5] = test system: NCI-60 panel of cell lines; assay: NCI-60 screen (whole panel); assay type: cell-based; conditions: Homo sapiens
Excerpt: The compound was then screened against a larger panel of cancer cell lines of diverse histopathologic origin, the NCI-60 screen. […] Mining of publicly available Cancer Genome Atlas (TCGA) expression data identified CHKA amplification and/or mRNA upregulation in 11% of breast, 5–10% of lung, 8% of ovarian, 7% of colorectal and 5% of prostate cancers. Furthermore, CHKA mRNA expression is higher in multiple tumor types compared to normal tissue (Supplementary Figure S1D). The gene was rarely mutated or deleted (0–2.5% mutation rate and < 1% deletion among all tested cancer types). The consistently high expression in a wide variety of tumor types highlights the relevance of CHKA in malignancy and role as a therapeutic target.

Structure (SMILES): CN(C)c1cc[n+](CCCCCCCCCCCC[n+]2ccc(N(C)C)cc2)cc1 [ICL-CCIC-0019]
- time of peak tumor concentration post injection [1]: 2 h
- potency compared with MN58B ([2]; CHKA inhibition): equipotent to MN58B
- potency relative to CK37 (times more potent) ([2]; CHKA inhibition): > 500 times
- IC50 ([2]; read-out: IC50 of CHKA activity): 270 ± 60 nM
- metabolic stability in plasma [3]: metabolically stable
- inhibition in all 131 kinases [4]: ≤ 35%
- number of kinases inhibited more than 20% ([4]; 131 kinases): 5
- remaining activity at 10 µM (MELK): 106%
- inhibition at 10 µM (MAPKAP-K3): 33 ± 6%
- remaining activity at 10 µM (MAPKAP-K3): 67%
- remaining activity at 10 µM (MEKK1): 92%
- remaining activity at 10 µM (EIF2AK3): 97%
- remaining activity at 10 µM (CK2): 86%
- remaining activity at 10 µM (STK33): 99%
- remaining activity at 10 µM (CDK9-Cyclin T1): 95%
- remaining activity at 10 µM (PIM1): 102%
- remaining activity at 10 µM (CK1γ2): 92%
- remaining activity at 10 µM (PKBb): 93%
- remaining activity at 10 µM (IRAK4): 83%
- remaining activity at 10 µM (PDK1): 133%
- remaining activity at 10 µM (RIPK2): 102%
- remaining activity at 10 µM (Aurora A): 98%
- remaining activity at 10 µM (PAK6): 107%
- remaining activity at 10 µM (MINK1): 100%
- remaining activity at 10 µM (PAK5): 90%
- GI50 ([5]; read-out: GI50 range across all cell lines): 38.9 to 16200 nM
- GI50 ([5]; read-out: median GI50 across all cell lines): 1120 nM
